Assay [1] addresses T1, Sodium- and chloride-dependent glycine transporter 1 (Rattus norvegicus, UniProt P28572).
T1 sequence (P28572 whole entry): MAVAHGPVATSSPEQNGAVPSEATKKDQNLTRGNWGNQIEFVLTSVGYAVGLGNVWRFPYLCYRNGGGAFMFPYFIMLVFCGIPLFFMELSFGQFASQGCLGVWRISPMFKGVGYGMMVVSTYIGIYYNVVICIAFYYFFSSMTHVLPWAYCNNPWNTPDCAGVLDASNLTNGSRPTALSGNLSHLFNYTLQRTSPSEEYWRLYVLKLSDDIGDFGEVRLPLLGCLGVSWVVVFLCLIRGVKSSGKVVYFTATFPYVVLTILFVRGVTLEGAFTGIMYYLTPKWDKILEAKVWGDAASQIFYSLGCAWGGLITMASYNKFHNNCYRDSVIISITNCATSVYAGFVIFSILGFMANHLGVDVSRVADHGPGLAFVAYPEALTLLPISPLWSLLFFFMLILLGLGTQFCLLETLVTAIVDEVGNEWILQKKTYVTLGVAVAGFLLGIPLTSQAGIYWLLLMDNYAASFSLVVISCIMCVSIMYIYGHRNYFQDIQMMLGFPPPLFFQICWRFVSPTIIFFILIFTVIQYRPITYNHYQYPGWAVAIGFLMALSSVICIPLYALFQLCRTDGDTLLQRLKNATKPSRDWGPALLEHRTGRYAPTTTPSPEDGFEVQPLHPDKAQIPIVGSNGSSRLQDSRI
The assay is described as follows: Inhibition of GlyT1 in primary rat cortical neurons assessed as reduction in [14C]glycine uptake after 2 hrs by microbeta scintillation counting method.

Assay [2] has as its target T2, Sodium- and chloride-dependent glycine transporter 1 (Homo sapiens, UniProt P48067).
T2 sequence (P48067 whole entry): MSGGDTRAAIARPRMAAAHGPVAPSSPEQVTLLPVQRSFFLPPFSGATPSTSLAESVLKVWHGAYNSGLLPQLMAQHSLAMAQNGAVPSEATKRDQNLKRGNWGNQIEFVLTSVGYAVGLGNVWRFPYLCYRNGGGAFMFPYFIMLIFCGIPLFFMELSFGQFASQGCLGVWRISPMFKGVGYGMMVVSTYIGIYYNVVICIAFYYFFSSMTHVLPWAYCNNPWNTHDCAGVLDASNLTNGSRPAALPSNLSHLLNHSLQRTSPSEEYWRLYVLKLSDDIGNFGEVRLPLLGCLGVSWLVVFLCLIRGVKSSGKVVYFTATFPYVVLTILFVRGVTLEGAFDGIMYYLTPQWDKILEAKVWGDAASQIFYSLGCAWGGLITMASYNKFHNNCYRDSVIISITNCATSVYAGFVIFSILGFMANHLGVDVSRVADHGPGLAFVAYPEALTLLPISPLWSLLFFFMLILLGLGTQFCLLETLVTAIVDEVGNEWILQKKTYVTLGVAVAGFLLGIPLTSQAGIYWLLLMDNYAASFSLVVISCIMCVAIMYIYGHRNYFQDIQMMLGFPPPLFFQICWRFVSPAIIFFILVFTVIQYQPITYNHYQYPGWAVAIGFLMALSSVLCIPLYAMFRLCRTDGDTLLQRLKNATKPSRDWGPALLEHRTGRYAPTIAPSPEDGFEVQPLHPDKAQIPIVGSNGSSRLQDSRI
The assay is described as follows: Inhibition of recombinant human GlyT1c expressed in HEK293 cells assessed as reduction in [14C]glycine uptake after 2 hrs by microbeta scintillation counting method. The assay is classed as cell-based.

For assay [3], the target named is T3, Sodium- and chloride-dependent glycine transporter 2 (Homo sapiens, UniProt Q9Y345).
T3 sequence (Q9Y345 whole entry): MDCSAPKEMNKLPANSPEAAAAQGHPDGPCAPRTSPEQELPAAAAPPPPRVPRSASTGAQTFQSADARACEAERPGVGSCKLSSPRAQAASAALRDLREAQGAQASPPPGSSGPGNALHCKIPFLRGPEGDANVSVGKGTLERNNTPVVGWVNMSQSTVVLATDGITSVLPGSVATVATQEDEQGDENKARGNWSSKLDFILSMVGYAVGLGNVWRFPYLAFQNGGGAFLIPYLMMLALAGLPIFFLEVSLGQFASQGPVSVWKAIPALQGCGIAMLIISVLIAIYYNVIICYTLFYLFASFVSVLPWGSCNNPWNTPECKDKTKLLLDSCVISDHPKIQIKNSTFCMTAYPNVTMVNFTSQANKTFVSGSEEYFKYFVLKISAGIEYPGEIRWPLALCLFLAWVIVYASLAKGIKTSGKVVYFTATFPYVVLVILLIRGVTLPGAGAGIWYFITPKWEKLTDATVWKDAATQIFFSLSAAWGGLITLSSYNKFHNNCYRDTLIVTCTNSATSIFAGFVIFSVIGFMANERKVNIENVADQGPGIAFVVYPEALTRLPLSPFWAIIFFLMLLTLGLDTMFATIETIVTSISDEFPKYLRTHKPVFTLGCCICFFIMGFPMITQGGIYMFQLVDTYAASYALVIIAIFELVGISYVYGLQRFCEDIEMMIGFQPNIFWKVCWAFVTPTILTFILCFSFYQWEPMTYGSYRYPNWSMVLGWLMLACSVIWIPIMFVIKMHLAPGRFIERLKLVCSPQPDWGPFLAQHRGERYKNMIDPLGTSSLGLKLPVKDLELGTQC
The assay is described as follows: Inhibition of recombinant human GlyT2 expressed in HEK293 cells assessed as reduction in [14C]glycine uptake after 2 hrs by microbeta scintillation counting method. The assay is classed as cell-based.

For the molecule `Cc1cccc(-n2cc3c(n2)CN(C(=O)c2cc(S(C)(=O)=O)ccc2O[C@@H](C)C(F)(F)F)C3)c1`, the IC50 in assay [1] is 12 nM; in assay [2], 23 nM; in assay [3], more than 10000 nM.

As to `CCS(=O)(=O)c1ccc(O[C@@H](C)C(F)(F)F)c(C(=O)N2Cc3cn(-c4ccnc(C)c4)nc3C2)c1`, the IC50 in assay [1] was 4 nM; in assay [2], 12 nM; in assay [3], more than 10000 nM.

Consider `Cc1cc(-n2cc3c(n2)CN(C(=O)c2cc(S(C)(=O)=O)ccc2-c2cccc(F)c2)C3)ccn1`, for which the IC50 is 2 nM in assay [1], 4 nM in assay [2] and more than 10000 nM in assay [3].

For the molecule `CS(=O)(=O)c1ccc(-c2cccc(F)c2)c(C(=O)N2Cc3cn(-c4cncc(F)c4)nc3C2)c1`, the IC50 in assay [1] was 10 nM; in assay [2], 6 nM; in assay [3], more than 10000 nM.

On to `CC(C)Oc1ccc(C#N)cc1C(=O)N1Cc2cn(-c3cncc(F)c3)nc2C1`, for which the results for the IC50 in assay [1], in assay [2] and in assay [3] were 183 nM, 113 nM and more than 10000 nM, respectively.

On to `CS(=O)(=O)c1ccc(N2CCC(F)(F)CC2)c(C(=O)N2Cc3cn(-c4cncc(F)c4)nc3C2)c1`, for which the figures for the IC50 in assay [1] and in assay [3] were 10 nM and more than 10000 nM, respectively.

Take `C[C@H](Oc1ccc(C#N)cc1C(=O)N1Cc2cn(C3CCCC3)nc2C1)C(F)(F)F`: the results for the IC50 in assay [1] and in assay [2] were 331 nM and 210 nM, respectively.

`Cc1cc(-n2cc3c(n2)CN(C(=O)c2cc(C#N)ccc2O[C@@H](C)C(F)(F)F)C3)ccn1`: the IC50 is 27 nM in assay [1], 18 nM in assay [2] and more than 10000 nM in assay [3].

Consider `Cc1cc(-n2cc3c(n2)CN(C(=O)c2cc(S(C)(=O)=O)ccc2N2CCC(F)(F)CC2)C3)ccn1`, for which the IC50 in assay [1] is 4 nM; in assay [2], 7 nM; in assay [3] it was more than 10000 nM.

As to `CC(C)Oc1ccc(S(C)(=O)=O)cc1C(=O)N1Cc2cn(-c3ccccc3F)nc2C1`, the values for the IC50 in assay [1], in assay [2] and in assay [3] were 18 nM, 23 nM and more than 10000 nM, respectively.

Consider `CS(=O)(=O)c1ccc(N2CCC(F)(F)CC2)c(C(=O)N2Cc3cn(-c4ccccc4F)nc3C2)c1`, for which the IC50 in assay [1] is 12 nM; in assay [3], more than 10000 nM.

As to `CC(C)Oc1ccc(C#N)cc1C(=O)N1Cc2cn(-c3ccccc3)nc2C1`, the IC50 is 161 nM in assay [1], 105 nM in assay [2] and more than 10000 nM in assay [3].

`Cc1cc(-n2cc3c(n2)CN(C(=O)c2cc(C#N)ccc2-c2cccc(F)c2)C3)ccn1`: the IC50 is 78 nM in assay [1], 55 nM in assay [2] and more than 10000 nM in assay [3].

Take `Cc1cc(-n2cc3c(n2)CN(C(=O)c2cc(C#N)ccc2N2CCC(F)(F)CC2)C3)ccn1`: the IC50 is 4 nM in assay [1] and more than 10000 nM in assay [3].

As for `CS(=O)(=O)c1ccc(-c2cccc(F)c2)c(C(=O)N2Cc3cn(-c4ccccc4F)nc3C2)c1`, the IC50 in assay [1] was 12 nM; in assay [2] it was 10 nM; in assay [3], more than 10000 nM.

As for `N#Cc1ccc(-c2cccc(F)c2)c(C(=O)N2Cc3cn(-c4cncc(F)c4)nc3C2)c1`, the IC50 in assay [1] is 619 nM; in assay [3], more than 10000 nM.

`Cc1cc(-n2cc3c(n2)CN(C(=O)c2cc(S(C)(=O)=O)ccc2O[C@@H](C)C(F)(F)F)C3)ccn1`: the IC50 was 3 nM in assay [1], 12 nM in assay [2] and more than 10000 nM in assay [3].

In general, IC50 refers to the concentration at which inhibition is half-maximal.

For the origin of these results see ChEMBL document CHEMBL4190397, “Design and Synthesis of Novel and Selective Glycine Transporter-1 (GlyT1) Inhibitors with Memory Enhancing Properties” (J Med Chem, 2018).
